Reference: patent US6673793B2, “Oxazinoquinolones useful for the treatment of viral infections” (Pharmacia & Upjohn Co., priority 2000, dated 2004)
Where “and” joins values, the source holds several entries; their conditions need not be identical. Identical values can stand only once. Counter-ions that a name gives are not always drawn.

Molecular target: T1, CMV polymerase (Human cytomegalovirus, UniProt P08546)
T1 construct: made in house; host or cells: recombinant baculovirus-infected SF-9 cells
T1 sequence (P08546 whole entry): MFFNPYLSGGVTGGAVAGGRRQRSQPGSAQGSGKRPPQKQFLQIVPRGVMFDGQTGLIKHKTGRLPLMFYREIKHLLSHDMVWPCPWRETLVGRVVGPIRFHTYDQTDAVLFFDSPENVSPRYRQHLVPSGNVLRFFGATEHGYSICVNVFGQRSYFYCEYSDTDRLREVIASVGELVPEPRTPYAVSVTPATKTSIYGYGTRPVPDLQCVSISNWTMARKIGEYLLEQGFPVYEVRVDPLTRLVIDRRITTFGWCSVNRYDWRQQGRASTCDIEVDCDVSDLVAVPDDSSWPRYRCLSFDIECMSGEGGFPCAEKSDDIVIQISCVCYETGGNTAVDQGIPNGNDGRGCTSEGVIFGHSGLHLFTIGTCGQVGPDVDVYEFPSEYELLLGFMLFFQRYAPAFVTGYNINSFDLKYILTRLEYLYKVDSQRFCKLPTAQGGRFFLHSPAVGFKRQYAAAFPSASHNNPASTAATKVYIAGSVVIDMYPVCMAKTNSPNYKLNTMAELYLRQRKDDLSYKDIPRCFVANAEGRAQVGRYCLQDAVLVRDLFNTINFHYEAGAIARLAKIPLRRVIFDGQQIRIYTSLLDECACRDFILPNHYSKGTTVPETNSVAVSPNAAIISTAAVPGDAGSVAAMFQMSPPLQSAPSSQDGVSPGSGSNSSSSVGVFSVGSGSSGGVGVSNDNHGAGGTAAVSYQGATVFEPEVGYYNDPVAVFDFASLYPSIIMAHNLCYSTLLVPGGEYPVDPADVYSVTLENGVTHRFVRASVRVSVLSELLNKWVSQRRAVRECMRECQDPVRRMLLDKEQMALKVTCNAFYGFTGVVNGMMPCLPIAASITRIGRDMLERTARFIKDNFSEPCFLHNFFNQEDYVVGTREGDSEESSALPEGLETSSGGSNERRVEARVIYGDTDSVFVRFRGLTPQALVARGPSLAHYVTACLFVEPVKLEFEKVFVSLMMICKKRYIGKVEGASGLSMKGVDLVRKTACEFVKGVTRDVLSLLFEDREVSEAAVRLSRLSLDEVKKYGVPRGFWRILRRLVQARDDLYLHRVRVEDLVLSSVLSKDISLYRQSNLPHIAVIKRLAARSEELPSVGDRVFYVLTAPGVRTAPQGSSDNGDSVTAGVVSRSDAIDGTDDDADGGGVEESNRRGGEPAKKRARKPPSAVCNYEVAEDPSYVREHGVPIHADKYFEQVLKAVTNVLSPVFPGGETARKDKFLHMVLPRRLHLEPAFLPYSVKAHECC
Assay: HCMV polymerase assay, scintillation proximity assay (SPA), modified version
Format: biochemical
Settings: CMV polymerase IC50 (μM), modified HCMV polymerase SPA assay: compounds diluted in 100% DMSO, 4.5 mM DTT in polymerase buffer, different lot of CMV polymerase
Protocol: The HCMV polymerase assay is performed using a scintillation proximity assay (SPA) as described in several references, such as N. D. Cook, et al., Pharmaceutical Manufacturing International, pages 49-53 (1992); K. Takeuchi, Laboratory Practice, September issue (1992); U.S. Pat. No. 4,568,649 (1986); which are incorporated by reference herein. Reactions are performed in 96-well plates. The assay is conducted in 100 μl volume with 5.4 mM HEPES (pH 7.5), 11.7 mM KCl, 4.5 mM MgCl2, 0.36 mg/ml BSA, and 90 nM ^3H-dTTP. Assays are run with and without CHAPS, (3-[(3-Cholamidopropyl)-dimethylammonio]-1-propane-sulfonate) at a final concentration of 2 mM. HCMV polymerase is diluted in enzyme dilution buffer containing 50% glycerol, 250 mM NaCl, 10 mM HEPES (pH 7.5), 100 μg/ml BSA, and 0.01% sodium azide. The HCMV polymerase, which is expressed in recombinant baculovirus-infected SF-9 cells and purified according to literature procedures, is added at 10% (or 10 μl) of the final reaction volume, i.e., 100 μl. Compounds are diluted in 50% DMSO and 10 μl are added to each well. Control wells contain an equivalent concentration of DMSO. Unless noted otherwise, reactions are initiated via the addition of 6 nM biotinylated poly(dA)-oligo(dT) template/primer to reaction mixtures containing the enzyme, substrate, and compounds of interest. Plates are incubated in a 25 C. or 37 C. H2O bath and terminated via the addition of 40 μl/reaction of 0.5 M EDTA (pH 8) per well. Reactions are terminated within the time-frame during which substrate incorporation is linear and varied depending upon the enzyme and conditions used, i.e., 30 min. for HCMV polymerase. Ten μl of streptavidin-SPA beads (20 mg/ml in PBS/10% glycerol) are added following termination of the reaction. Plates are incubated 10 min. at 37 C., then equilibrated to room temperature, and counted on a Packard Topcount. Linear regressions are performed and IC50's are calculated using computer software.
A modified version of the above HCMV polymerase assay is performed as described above, but with the following changes: Compounds are diluted in 100% DMSO until final dilution into assay buffer. In the previous assay, compounds are diluted in 50% DMSO. 4.5 mM dithiotherotol (DTT) is added to the polymerase buffer.

Compound | IC50 [µM]
COP(=O)(OC)OCC1Cn2cc(C(=O)NCc3ccc(Cl)cc3)c(=O)c3cc(CN4CCOCC4)cc(c32)O1 (centres unmarked) [Example 26, [6-{[(4-Chlorobenzyl)amino]carbonyl}-9-(4-morpholinylmethyl)-7-oxo-2,3-dihydro-7H-[1,4]oxazino[2,3,4-ij]quinolin-2-yl]methyl dimethyl phosphate] | 0.53

Same assay, conditions: modified HCMV polymerase SPA assay: compounds diluted in 100% DMSO, 4.5 mM DTT in polymerase buffer, different lot of CMV polymerase; read-out: CMV polymerase IC50

Compound | IC50
O=C(NCc1ccc(Cl)cc1)c1cn2c3c(cc(CN4CCOCC4)cc3c1=O)OC(CNCc1cccnc1)C2 (single isomer, unassigned) [Example 22, N-(4-chlorobenzyl)-9-(4-morpholinylmethyl)-7-oxo-2-(R or S)-{[(3-pyridinylmethyl)amino]methyl}-2,3-dihydro-7H-[1,4]oxazino[2,3,4-ij]quinoline-6-carboxamide] | 0.3 µM
O=C(NCc1ccc(Cl)cc1)c1cn2c3c(cc(CN4CCOCC4)cc3c1=O)OC(CNCc1cccnc1)C2 (single isomer, unassigned) [Example 23, N-(4-Chlorobenzyl)-9-(4-morpholinylmethyl)-7-oxo-2-(R or S)-{[3-pyridinylmethyl)amino]methyl}-2,3-dihydro-7H-[1,4]oxazino[2,3,4-ij]quinoline-6-carboxamide] | 1.1 µM
O=C(NCc1ccc(Cl)cc1)c1cn2c3c(cc(CN4CCOCC4)cc3c1=O)OC(CNCC(O)CO)C2 (centres unmarked) [Example 6, N-(4-Chlorobenzyl)-2-{[(2,3-dihydroxypropyl)amino]methyl}-9-(4-morpholinylmethyl)-7-oxo-2,3-dihydro-7H-[1,4]oxazino[2,3,4-ij]quinoline-6-carboxamide] | 0.66 µM
O=C(NCc1ccc(Cl)cc1)c1cn2c3c(cc(CN4CCOCC4)cc3c1=O)OC(CNCCO)C2 (centres unmarked) [Example 7, N-(4-Chlorobenzyl)-2-{[(2-hydroxyethyl)amino]methyl}-9-(4-morpholinylmethyl)-7-oxo-2,3-dihydro-7H-[1,4]oxazino[2,3,4-ij]quinoline-6-carboxamide] | 0.67 µM
O=C(NCc1ccc(Cl)cc1)c1cn2c3c(cc(CN4CCOCC4)cc3c1=O)OC(CN(CCO)CCO)C2 (centres unmarked) [Example 9, 2-{[bis(2-Hydroxyethyl)amino]methyl}-N-(4-chlorobenzyl)-9-(4-morpholinylmethyl)-7-oxo-2,3-dihydro-7H-[1,4]oxazino[2,3,4-ij]quinoline-6-carboxamide] | 0.59 µM
O=C(NCc1ccc(Cl)cc1)c1cn2c3c(cc(CN4CCOCC4)cc3c1=O)OC(CSCCO)C2 (centres unmarked) [Example 16, N-(4-Chlorobenzyl)-2-{[(2-hydroxyethyl)sulfanyl]methyl}-9-(4-morpholinylmethyl)-7-oxo-2,3-dihydro-7H-[1,4]oxazino[2,3,4-ij]quinoline-6-carboxamide] | 0.42 µM
Cn1ccnc1SCC1Cn2cc(C(=O)NCc3ccc(Cl)cc3)c(=O)c3cc(CN4CCOCC4)cc(c32)O1 (centres unmarked) [Example 17] | 0.27 µM
O=C(NCc1ccc(Cl)cc1)c1cn2c3c(cc(CN4CCOCC4)cc3c1=O)OC(CSCC(O)CO)C2 (centres unmarked) [Example 19, N-(4-Chlorobenzyl)-2-{[(2,3-dihydroxypropyl)sulfanyl]methyl}-9-(4-morpholinylmethyl)-7-oxo-2,3-dihydro-7H-[1,4]oxazino[2,3,4-ij]quinoline-6-carboxamide] | 0.57 µM
CN(CCS(=O)(=O)O)C(=O)CCCCCCC(=O)OCC1Cn2cc(C(=O)NCc3ccc(Cl)cc3)c(=O)c3cc(CN4CCOCC4)cc(c32)O1 (centres unmarked) [Example 25, 2-[(8-{[6-{[(4-Chlorobenzyl)amino]carbonyl}-9-(4-morpholinylmethyl)-7-oxo-2,3-dihydro-7H-[1,4]oxazino[2,3,4-ij]quinolin-2-yl]methoxy}-8-oxooctanoyl)(methyl)amino]ethanesulfonic acid sodium salt] | 1.3 µM
O=C(NCc1ccc(Cl)cc1)c1cn2c3c(cc(CN4CCOCC4)cc3c1=O)OCC2c1ccccc1 (centres unmarked) [Example 29, N-(4-Chlorobenzyl)-9-(4-morpholinylmethyl)-7-oxo-3-phenyl-2,3-dihydro-7H-[1,4]oxazino[2,3,4-ij]quinoline-6-carboxamide] | 1 µM
O=C(NCc1ccc(Cl)cc1)c1cn2c3c(cc(CN4CCOCC4)cc3c1=O)OCC2CN1CCOCC1 (centres unmarked) [Example 30, N-(4-Chlorobenzyl)-3,9-bis(4-morpholinylmethyl)-7-oxo-2,3-dihydro-7H-[1,4]oxazino[2,3,4-ij]quinoline-6-carboxamide] | 0.97 µM
O=C(NCc1ccc(Cl)cc1)c1cn2c3c(cc(C#CCO)cc3c1=O)OCC2(CO)CO [Example 31, N-(4-Chlorobenzyl)-3,3-bis(hydroxymethyl)-9-(3-hydroxy-1-propynyl)-7-oxo-2,3-dihydro-7H-[1,4]oxazino[2,3,4-ij]quinoline-6-carboxamide] | 5 µM
O=C(NCc1ccc(Cl)cc1)c1cn2c3c(cc(CCCO)cc3c1=O)OCC2(CO)CO [Example 32, N-(4-Chlorobenzyl)-3,3-bis(hydroxymethyl)-9-(3-hydroxypropyl)-7-oxo-2,3-dihydro-7H-[1,4]oxazino[2,3,4-ij]quinoline-6-carboxamide] | 3 µM

Results, then the compound that gave them:

IC50 | Compound
0.35 µM | O=C(NCc1ccc(Cl)cc1)c1cn2c3c(cc(CN4CCOCC4)cc3c1=O)OC(CO)C2 (single isomer, unassigned) [Example 20, N-(4-Chlorobenzyl)-2-(R or S)-(hydroxymethyl)-9-(4-morpholinylmethyl)-7-oxo-2,3-dihydro-7H-[1,4]oxazino[2,3,4-ij]quinoline-6-carboxamide]
0.67 µM | O=C(NCc1ccc(Cl)cc1)c1cn2c3c(cc(CN4CCOCC4)cc3c1=O)OC(CO)C2 (single isomer, unassigned) [Example 21, N-(4-Chlorobenzyl)-2-(R or S)-(hydroxymethyl)-9-(4-morpholinylmethyl)-7-oxo-2,3-dihydro-7H-[1,4]oxazino[2,3,4-ij]quinoline-6-carboxamide]
0.68 µM and 0.32 µM | O=C(NCc1ccc(Cl)cc1)c1cn2c3c(cc(CN4CCOCC4)cc3c1=O)OC(c1ccccn1)C2 (single isomer, unassigned) [Example 57, N-(4-Chlorobenzyl)-9-(morpholin-4-ylmethyl)-7-oxo-2-(R or S)-pyridin-2-yl-2,3-dihydro-7H-[1,4]oxazino[2,3,4-ij]quinoline-6-carboxamide]
0.57 µM and 0.27 µM | O=C(NCc1ccc(Cl)cc1)c1cn2c3c(cc(CN4CCOCC4)cc3c1=O)OC(c1cccnc1)C2 (single isomer, unassigned) [Example 58, N-(4-Chlorobenzyl)-9-(morpholin-4-ylmethyl)-7-oxo-2-(R or S)-pyridin-3-yl-2,3-dihydro-7H-[1,4]oxazino[2,3,4-ij]quinoline-6-carboxamide]
0.61 µM | O=C(NCc1ccc(Cl)cc1)c1cn2c3c(cc(CN4CCOCC4)cc3c1=O)OC(CO)C2 (centres unmarked) [Example 1, N-(4-Chlorobenzyl)-2-(hydroxymethyl)-9-(4-morpholinylmethyl)-7-oxo-2,3-dihydro-7H-[1,4]oxazino[2,3,4-ij]quinoline-6-carboxamide]
0.62 µM | O=C(NCc1ccc(Cl)cc1)c1cn2c3c(cc(CN4CCOCC4)cc3c1=O)OC(CNCc1ccccn1)C2 (centres unmarked) [Example 10, N-(4-Chlorobenzyl)-9-(4-morpholinylmethyl)-7-oxo-2-{[(2-pyridinylmethyl)amino]methyl}-2,3-dihydro-7H-[1,4]oxazino[2,3,4-ij]quinoline-6-carboxamide]
0.54 µM | O=C(NCc1ccc(Cl)cc1)c1cn2c3c(cc(CN4CCOCC4)cc3c1=O)OC(CNCc1cccnc1)C2 (centres unmarked) [Example 11, N-(4-Chlorobenzyl)-9-(4-morpholinylmethyl)-7-oxo-2-{[(3-pyridinylmethyl)amino]methyl}-2,3-dihydro-7H-[1,4]oxazino[2,3,4-ij]quinoline-6-carboxamide]
0.92 µM | O=C(NCc1ccc(Cl)cc1)c1cn2c3c(cc(CN4CCOCC4)cc3c1=O)OC(c1ccccc1)C2 (centres unmarked) [Example 27, N-(4-Chlorobenzyl)-9-(4-morpholinylmethyl)-7-oxo-2-phenyl-2,3-dihydro-7H-[1,4]oxazino[2,3,4-ij]quinoline-6-carboxamide]
0.52 µM | O=C(NCc1ccc(Cl)cc1)c1cn2c3c(cc(CN4CCOCC4)cc3c1=O)OC(c1ccccn1)C2 (centres unmarked) [Example 33, N-(4-Chlorobenzyl)-9-(4-morpholinylmethyl)-7-oxo-2-(2-pyridinyl)-2,3-dihydro-7H1-[1,4]oxazino[2,3,4-ij]quinoline-6-carboxamide]
